From PubChem BioAssay (NCI)
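The concentration for 50% growth inhibition is given as GI50. TGI: concentration producing complete growth inhibition.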

What was measured:
Experiment in all cases: growth of human tumour cells (NCI), 384-well format
SNB-75 CNS = system: SNB-75 CNS
T-47D breast = system: T-47D breast
NCI-H23 lung = system: NCI-H23 lung
M14 melanoma = system: M14 melanoma
NCI-H522 lung = system: NCI-H522 lung
NCI-H226 lung = system: NCI-H226 lung
SR leukemia = system: SR leukemia
NCI-H460 NSCLC = system: NCI-H460 NSCLC
PC-3 prostate = system: PC-3 prostate
OVCAR-3 ovarian = system: OVCAR-3 ovarian
SNB-19 CNS = system: SNB-19 CNS
SN12C renal = system: SN12C renal
HS 578T breast = system: HS 578T breast
SF-539 CNS = system: SF-539 CNS
MDA-MB-435 melanoma = system: MDA-MB-435 melanoma
EKVX NSCLC = system: EKVX NSCLC
A549 NSCLC = system: A549 NSCLC
OVCAR-4 ovarian = system: OVCAR-4 ovarian
HCT-15 colon = system: HCT-15 colon
A498 renal = system: A498 renal
786-0 renal = system: 786-0 renal
HCC-2998 colon = system: HCC-2998 colon
HOP-62 NSCLC = system: HOP-62 NSCLC
HL-60(TB) leukemia = system: HL-60(TB) leukemia
OVCAR-8 ovarian = system: OVCAR-8 ovarian
TK-10 renal = system: TK-10 renal
MOLT-4 leukemia = system: MOLT-4 leukemia
SK-MEL-5 melanoma = system: SK-MEL-5 melanoma
MDA-MB-468 breast = system: MDA-MB-468 breast
UO-31 renal = system: UO-31 renal
RXF 393 renal = system: RXF 393 renal
SK-OV-3 ovarian = system: SK-OV-3 ovarian
SW-620 colon = system: SW-620 colon
CAKI-1 renal = system: CAKI-1 renal
DU-145 prostate = system: DU-145 prostate
CCRF-CEM leukemia = system: CCRF-CEM leukemia
SK-MEL-28 melanoma = system: SK-MEL-28 melanoma
SF-295 CNS = system: SF-295 CNS
UACC-257 melanoma = system: UACC-257 melanoma
RPMI-8226 leukemia = system: RPMI-8226 leukemia
IGROV1 ovarian = system: IGROV1 ovarian
NCI-H322M lung = system: NCI-H322M lung
MDA-MB-231 breast = system: MDA-MB-231 breast
ACHN renal = system: ACHN renal
HCT-116 colon = system: HCT-116 colon
MALME-3M melanoma = system: MALME-3M melanoma
BT-549 breast = system: BT-549 breast
OVCAR-5 ovarian = system: OVCAR-5 ovarian
HOP-92 NSCLC = system: HOP-92 NSCLC
HT29 colon = system: HT29 colon
LOX IMVI melanoma = system: LOX IMVI melanoma
NCI/ADR-RES ovarian = system: NCI/ADR-RES ovarian
U251 glioblastoma = system: U251 glioblastoma
KM12 colon = system: KM12 colon
K-562 leukemia = system: K-562 leukemia
SF-268 CNS = system: SF-268 CNS

Molecule Nc1cc(C(F)(F)F)c(-c2cc(N3CCOCC3)nc(N3CCOCC3)n2)cn1 has a GI50 (SNB-75 CNS) of 287 nM, a TGI (SNB-75 CNS) of 1190 nM and a GI50 (T-47D breast) of 231 nM. The TGI (T-47D breast) was 776 nM, the GI50 (NCI-H23 lung) was 310 nM and the TGI (NCI-H23 lung) was 2260 nM. The GI50 (M14 melanoma) was 416 nM, the TGI (M14 melanoma) was 8850 nM and the GI50 (NCI-H522 lung) was 341 nM. For the same molecule, the TGI (NCI-H522 lung) was 1300 nM, the GI50 (NCI-H226 lung) was 574 nM and the TGI (NCI-H226 lung) was 4130 nM. For the same molecule, the GI50 (SR leukemia) was 45.9 nM, the TGI (SR leukemia) was 160 nM and the GI50 (NCI-H460 NSCLC) was 419 nM. The TGI (NCI-H460 NSCLC) was 1670 nM, the GI50 (PC-3 prostate) was 462 nM and the TGI (PC-3 prostate) was 6930 nM. The GI50 (OVCAR-3 ovarian) was 546 nM, the TGI (OVCAR-3 ovarian) was 2460 nM and the GI50 (SNB-19 CNS) was 2030 nM. The TGI (SNB-19 CNS) was 7760 nM, the GI50 (SN12C renal) was 1220 nM and the TGI (SN12C renal) was 7120 nM. For the same molecule, the GI50 (HS 578T breast) was 443 nM, the TGI (HS 578T breast) was 1750 nM and the GI50 (SF-539 CNS) was 1210 nM. For the same molecule, the TGI (SF-539 CNS) was 2910 nM, the GI50 (MDA-MB-435 melanoma) was 223 nM and the TGI (MDA-MB-435 melanoma) was 449 nM. For the same molecule, the GI50 (EKVX NSCLC) was 793 nM, the TGI (EKVX NSCLC) was 6280 nM and the GI50 (A549 NSCLC) was 360 nM. It also gave a TGI (A549 NSCLC) of 12400 nM, a GI50 (OVCAR-4 ovarian) of 1260 nM and a TGI (OVCAR-4 ovarian) of 6660 nM. The GI50 (HCT-15 colon) was 394 nM, the TGI (HCT-15 colon) was 4110 nM and the GI50 (A498 renal) was 387 nM. The TGI (A498 renal) was 1870 nM, the GI50 ([…]-0 renal) was 1970 nM and the TGI (786-0 renal) was 7000 nM. It also gave a GI50 (HCC-2998 colon) of 1080 nM, a TGI (HCC-2998 colon) of 3370 nM and a GI50 (HOP-62 NSCLC) of 264 nM. It also gave a TGI (HOP-62 NSCLC) of 2730 nM, a GI50 (HL-60(TB) leukemia) of 280 nM and a TGI (HL-60(TB) leukemia) of 1300 nM. The GI50 (OVCAR-8 ovarian) was 460 nM, the TGI (OVCAR-8 ovarian) was 14000 nM and the GI50 (TK-10 renal) was 572 nM. It also gave a TGI (TK-10 renal) of 2730 nM, a GI50 (MOLT-4 leukemia) of 333 nM and a TGI (MOLT-4 leukemia) of 1330 nM. For the same molecule, the GI50 (SK-MEL-5 melanoma) was 235 nM, the TGI (SK-MEL-5 melanoma) was 762 nM and the GI50 (MDA-MB-468 breast) was 230 nM. For the same molecule, the TGI (MDA-MB-468 breast) was 618 nM, the GI50 (UO-31 renal) was 340 nM and the TGI (UO-31 renal) was 3070 nM. The GI50 (RXF 393 renal) was 285 nM, the TGI (RXF 393 renal) was 1300 nM and the GI50 (SK-OV-3 ovarian) was 560 nM. The TGI (SK-OV-3 ovarian) was 2550 nM, the GI50 (SW-620 colon) was 358 nM and the TGI (SW-620 colon) was over 100000 nM. The GI50 (CAKI-1 renal) was 230 nM, the TGI (CAKI-1 renal) was 804 nM and the GI50 (DU-145 prostate) was 1990 nM. The TGI (DU-145 prostate) was 13900 nM, the GI50 (CCRF-CEM leukemia) was 589 nM and the TGI (CCRF-CEM leukemia) was 1880 nM. It also gave a GI50 (SK-MEL-28 melanoma) of 485 nM, a TGI (SK-MEL-28 melanoma) of 3340 nM and a GI50 (SF-295 CNS) of 361 nM. For the same molecule, the TGI (SF-295 CNS) was 1540 nM, the GI50 (UACC-257 melanoma) was 930 nM and the TGI (UACC-257 melanoma) was 7270 nM. For the same molecule, the GI50 (RPMI-8226 leukemia) was 185 nM, the TGI (RPMI-8226 leukemia) was 385 nM and the GI50 (IGROV1 ovarian) was 209 nM. It also gave a TGI (IGROV1 ovarian) of 572 nM, a GI50 (NCI-H322M lung) of 1620 nM and a TGI (NCI-H322M lung) of 7010 nM. The GI50 (MDA-MB-231 breast) was 819 nM, the TGI (MDA-MB-231 breast) was 44900 nM and the GI50 (ACHN renal) was 246 nM. For the same molecule, the TGI (ACHN renal) was 10000 nM, the GI50 (HCT-116 colon) was 852 nM and the TGI (HCT-116 colon) was 7530 nM. For the same molecule, the GI50 (MALME-3M melanoma) was 272 nM, the TGI (MALME-3M melanoma) was 838 nM and the GI50 (BT-549 breast) was 691 nM. The TGI (BT-549 breast) was 4610 nM, the GI50 (OVCAR-5 ovarian) was 687 nM and the TGI (OVCAR-5 ovarian) was over 100000 nM. It also gave a GI50 (HOP-92 NSCLC) of 562 nM, a TGI (HOP-92 NSCLC) of 4000 nM and a GI50 (HT29 colon) of 715 nM. For the same molecule, the TGI (HT29 colon) was over 100000 nM, the GI50 (LOX IMVI melanoma) was 1180 nM and the TGI (LOX IMVI melanoma) was 10700 nM. For the same molecule, the GI50 (NCI/ADR-RES ovarian) was 265 nM, the TGI (NCI/ADR-RES ovarian) was 1670 nM and the GI50 (U251 glioblastoma) was 1770 nM. The TGI (U251 glioblastoma) was 4370 nM, the GI50 (KM12 colon) was 894 nM and the TGI (KM12 colon) was 20200 nM. It also gave a GI50 (K-562 leukemia) of 459 nM, a TGI (K-562 leukemia) of 1830 nM and a GI50 (SF-268 CNS) of 384 nM. For the same molecule, the TGI (SF-268 CNS) was 4570 nM.
